Source: article PMC6934184, “Selective DNA-PKcs inhibition extends the therapeutic index of localized radiotherapy and chemotherapy” (The Journal of Clinical Investigation, 2019)

Biological target: T1, PLK2 (Homo sapiens, UniProt Q9NYY3)
T1 construct: purchased Thermo Fisher Scientific (Life Technologies) SelectScreen
Experiment: SelectScreen Z'LYTE
Type: biochemical
How it was run: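 NU5455 was profiled across the SelectScreen Broad panel of kinase activity and binding assays. Z'LYTE reactions such as CSF1R ran at apparent Km ATP, while the Adapta CAMK1 assay used ATP listed as 10. Values are given as percent.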

T1 sequence (Q9NYY3 whole entry): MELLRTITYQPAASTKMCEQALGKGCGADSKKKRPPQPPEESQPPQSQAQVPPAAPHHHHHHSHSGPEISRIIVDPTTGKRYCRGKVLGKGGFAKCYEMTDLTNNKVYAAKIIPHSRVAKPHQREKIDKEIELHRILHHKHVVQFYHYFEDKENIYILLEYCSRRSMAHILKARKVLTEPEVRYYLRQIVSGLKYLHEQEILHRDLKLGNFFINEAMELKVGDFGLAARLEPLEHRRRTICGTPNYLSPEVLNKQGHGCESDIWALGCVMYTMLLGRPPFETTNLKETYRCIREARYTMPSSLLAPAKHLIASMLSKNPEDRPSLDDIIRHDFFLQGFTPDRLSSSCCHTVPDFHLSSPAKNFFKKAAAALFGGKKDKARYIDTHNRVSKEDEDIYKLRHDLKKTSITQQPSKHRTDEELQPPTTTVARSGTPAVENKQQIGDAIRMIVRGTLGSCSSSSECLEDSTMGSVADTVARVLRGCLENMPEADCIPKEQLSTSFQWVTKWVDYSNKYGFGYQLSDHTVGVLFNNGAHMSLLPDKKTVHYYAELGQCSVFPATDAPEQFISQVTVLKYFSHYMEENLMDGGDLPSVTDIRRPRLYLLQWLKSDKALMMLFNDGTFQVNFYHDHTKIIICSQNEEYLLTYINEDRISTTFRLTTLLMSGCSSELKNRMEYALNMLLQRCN

With `CN(C(=O)CN1CCOCC1)c1ccc2sc3c(-c4cccc5c(=O)cc(N6CC7CCC(C6)O7)oc45)cccc3c2c1` [NU5455] as the compound, how does the inhibition at 1 µM read?
The inhibition at 1 µM was 14.1%.
